Laboratory results reported in US9248162B2, “Factor H for treatment of rheumatoid arthritis” (Baxter International Inc., priority 2013, dated 2016).
“And” between values parts separate entries of the source, which are not always exact repeats. Equal entries are not always repeated. “Also recorded” adds a separate entry of the source. Marks after values point to notes of the source that are not given here.

Assays:
[1] = system: collagen antibody-induced arthritis; experiment: Mouse CAIA: hind paw / footpad volume (swelling, disease burden); format: in vivo, Balb C mice; set-up: Mean Disease Burden / Total Disease Burden (AUC) / Hind Limb Volume, Mean Diff. / Total Disease, Mean Diff.: unit not given here; settings: for Hind Limb Volume, Mean Diff. / Hind Limb Volume, Summary (significance) / Total Disease, Mean Diff. / Total Disease, Summary (significance): Vehicle vs agent, Dunnett's Multiple Comparison Test; for % Disease Suppression / Total Disease Burden (AUC): days 8-22; for Maximum Δ Mean Volume: difference between mean combined foot pad volumes on day 8 and on median day of maximal swelling, vehicle 0.21; for Mean Disease Burden: group mean AUC of combined footpad volume over baseline, days 8 to 22, vehicle 1.93; for % Disease Suppression (vs Vehicle): percent decrease in total disease burden relative to vehicle
Protocol: (§1) Balb C mice (n=10 per cohort) were used to determine the efficacy of Factor H (FH) during […]. The mice were treated with ArthritoMAb (anti-collagen) antibody cocktail (2 mg, i.v.) on day 1, followed 7 days later with an injection of LPS (50 μg, i.p.). On day 8, hind paw volumes were measured for each animal and distributed to various treatment groups.
Factor H was formulated in 20 mM Citrate, 150 mM NaCl, pH=6. […] Ethanercept was formulated as Enbrel™ in saline. Vehicle was formulated in 20 mM Citrate, 150 mM NaCl, pH=6. […] The dosing volume for Factor H and BX12 was 25 mL/kg (0.500 mL/20 g mouse) and adjusted accordingly for body weight.
(§2) Dosing with the different agents was started on day 8 as described in Table 3.
(§3) The age at start date was 7 to 9 weeks. Body weights were measured bi-weekly to the endpoint (Table 4). At the endpoint, tissue samples were processed for histology and submitted to a pathologist for independent analysis. Sampling 1 was performed at the endpoint. The hind limbs were preserved in 10% formalin. Sampling 2 was performed at the endpoint for group 4 animals. Blood was collected by terminal cardiac puncture. The blood was processed for anti-coagulant. The kidneys were additionally preserved in formalin and followed with 70% EtOH. Samples were scored for inflammation, pannus (granulation tissue), cartilage damage, bone resorption and exostosis (Table 5).

[2] = Mouse CAIA: body weight and tolerability; format: in vivo, Balb C mice
Protocol: as §1, §2
as §3, with “Hind paw volumes were measured on day 8, 11, 12, 13, 15, 19 and 22 (endpoint). The age” for “The age”

[3] = system: pre-sensitized kidney transplants; experiment: Early phase kidney allograft histology, HE staining (Example 3); format: in vivo, C57BL/6 (B6) mice; settings: result in words; POD5 (FIG. 6B)
Protocol: The effect of CFH with or without Adrenomedullin (AM) on kidney graft function, antibody response, and histology was determined following the early phase of transplantation (POD3 and POD5). The pre-sensitized kidney transplants were treated with CFH (8 mg, i.p.) on day −1, day 0 and then every other day. To test whether AM provides additional benefits to renal graft function, an additional group of transplants were treated with a single dose infusion (200 μl, i.v.) of AM (˜100 ug/kg) mixed with CFH (˜1 mg/kg) immediately following the transplant surgery (POD0), in addition to the i.p. injection of CFH (day-1, 0, and every other day).
All mice were sacrificed on POD3 and 5, respectively (˜5/ea). Untreated transplants sacrificed at the same endpoints were used as controls. Graft tissues were harvested for histology and immune-histochemistry (IHC). The experimental groups were as follows: 1) C3H to B6 txs+pre-sensitization+control; 2) C3H to B6 txs+pre-sensitization+CFH (i.p.); and 3) C3H to B6 txs+pre-sensitization+CFH (i.p.)+AM/CFH infusion (at time of transplant).

[4] = system: C3H kidneys grafted into pre-sensitized recipients; experiment: Pre-sensitized mouse kidney allograft model, CFH with or without FK506, creatinine (Example 1); format: in vivo, C57BL/6 (B6) mice
From the text: Male C3H (H-2k) and C57BL/6 (B6, H-2b) mice (25-30 g) were used to determine the efficacy of Complement Factor H (CFH) during transplant rejection. C3H mice served as skin graft and kidney donors for pre-sensitization and kidney transplantation. Male C57BL/c (B6) mice were used as recipients. The B6 recipients were pre-sensitized by transplantation of the donor skin grafts, and were subsequently transplanted with kidney allografts between 15 and 20 days after the skin transplantation. B6 mice were treated with vehicle (controls), CFH (day −1, day 0, then every other day to day 10; 8 mg/mouse, i.p.), FK506 (daily from day −1 to day 10; 1 mg/kg s.c.) or the combination of CFH+FK506 using the same dosage regime as the single treatments. Mice were monitored daily for signs of rejection. Renal function was monitored by measuring serum creatinine levels.

[5] = system: pre-sensitized kidney transplants; experiment: Early phase (POD3, POD5) kidney graft function, CFH with or without Adrenomedullin (Example 3); format: in vivo, C57BL/6 (B6) mice; settings: result in words; POD5, vs. untreated controls (FIG. 6A)
Protocol: The effect of CFH with or without Adrenomedullin (AM) on kidney graft function, antibody response, and histology was determined following the early phase of transplantation (POD3 and POD5). […] To test whether AM provides additional benefits to renal graft function, an additional group of transplants were treated with a single dose infusion (200 μl, i.v.) of AM (˜100 ug/kg) mixed with CFH (˜1 mg/kg) immediately following the transplant surgery (POD0), in addition to the i.p. injection of CFH (day-1, 0, and every other day). CFH is a serum-binding protein for AM. It has been shown that AM influences the complement regulatory function of Factor H by enhancing the cleavage of C3b via Factor I. […] FH concentration will be 112.5 μg/ml). Transfer 220 μl aliquots to sterile tubes and freeze at −70 until ready for use. All mice were sacrificed on POD3 and 5, respectively (˜5/ea). Untreated transplants sacrificed at the same endpoints were used as controls. Graft tissues were harvested for histology and immune-histochemistry (IHC). The experimental groups were as follows: 1) C3H to B6 txs+pre-sensitization+control; 2) C3H to B6 txs+pre-sensitization+CFH (i.p.); and 3) C3H to B6 txs+pre-sensitization+CFH (i.p.)+AM/CFH infusion (at time of transplant).

[6] = day 8 of study, group mean, n 10
[7] = day 11 of study, group mean, n 10
[8] = day 12 of study, group mean, n 10
[9] = day 13 of study, group mean, n 10
[10] = day 16 of study, group mean, n 10
[11] = day 19 of study, group mean, n 10
[12] = day 22 of study, group mean, n 10
[13] = individual animal, listed as BX12

Etanercept
Hind Limb Volume, Mean Diff. [1]: 0.08143 | Hind Limb Volume, Summary (significance) [1]: ** (= P < 0.01) | Total Disease, Mean Diff. [1]: 1.19 | Total Disease, Summary (significance) [1]: ** (= P < 0.01) | Hind paw volume [1, 6]: 0.35 mL | Hind paw volume ([1]; day 8 of study, individual animal): 0.41 mL and 0.4 mL and 0.38 mL and 0.37 mL and 0.35 mL and 0.34 mL and 0.32 mL and 0.31 mL and 0.3 mL (2×) | Hind paw volume [1, 7]: 0.44 mL | Hind paw volume ([1]; day 11 of study, individual animal): 0.49 mL and 0.44 mL (2×) and 0.37 mL and 0.38 mL and 0.59 mL and 0.4 mL (2×) and 0.45 mL and 0.41 mL | Hind paw volume [1, 8]: 0.44 mL | Hind paw volume ([1]; day 12 of study, individual animal): 0.58 mL and 0.44 mL and 0.35 mL and 0.42 mL and 0.46 mL and 0.49 mL and 0.45 mL and 0.39 mL (2×) and 0.4 mL | Hind paw volume [1, 9]: 0.42 mL | Hind paw volume ([1]; day 13 of study, individual animal): 0.58 mL and 0.41 mL (2×) and 0.36 mL and 0.33 mL and 0.49 mL and 0.39 mL and 0.35 mL and 0.43 mL and 0.4 mL | Hind paw volume [1, 10]: 0.38 mL | Hind paw volume ([1]; day 16 of study, individual animal): 0.45 mL and 0.46 mL and 0.34 mL and 0.37 mL and 0.43 mL and 0.41 mL and 0.33 mL (2×) and 0.32 mL and 0.3 mL | Hind paw volume [1, 11]: 0.42 mL | Hind paw volume ([1]; day 19 of study, individual animal): 0.61 mL and 0.43 mL and 0.4 mL and 0.47 mL (2×) and 0.32 mL and 0.42 mL and 0.35 mL and 0.33 mL and 0.36 mL | Hind paw volume [1, 12]: 0.38 mL | Hind paw volume ([1]; day 22 of study, individual animal): 0.55 mL and 0.41 mL (2×) and 0.34 mL (2×) and 0.39 mL and 0.36 mL (3×) and 0.32 mL | % Disease Suppression ([1]; group mean, n 10): 61.66% | Total Disease Burden (AUC) ([1]; group mean, n 10): 0.74 | % Disease Suppression ([1]; individual animal): 16.3% and 74.3% and 109.8% and 81.9% and 52.3% and 49.7% and 69.4% and 70.2% and 29.0% and 63.7% | Total Disease Burden (AUC) ([1]; individual animal): 1.62 and 0.58 (2×) and −0.19 and 0.35 and 0.92 and 0.97 and 0.59 and 1.37 and 0.70 | Maximum Δ Mean Volume [1]: 0.13** ml | Mean Disease Burden [1]: 0.74** | % Disease Suppression (vs Vehicle) [1]: 61.7% | Mean Body Weigh at Nadir ([2]; mouse, in vivo): −5.7%

Factor H
Hind Limb Volume, Mean Diff. [1]: 0.1199 | Hind Limb Volume, Summary (significance) [1]: *** (= P < 0.001) | Total Disease, Mean Diff. [1]: 1.88 | Total Disease, Summary (significance) [1]: *** (= P < 0.001) | Hind paw volume [1, 6]: 0.35 mL | Hind paw volume ([1]; day 8 of study, individual animal, listed as BX12): 0.41 mL and 0.4 mL and 0.38 mL and 0.37 mL and 0.35 mL and 0.34 mL and 0.32 mL (2×) and 0.3 mL (2×) | Hind paw volume [1, 7]: 0.39 mL | Hind paw volume ([1]; day 11 of study, individual animal, listed as BX12): 0.44 mL and 0.36 mL and 0.38 mL and 0.4 mL and 0.34 mL and 0.39 mL and 0.46 mL and 0.43 mL and 0.35 mL | Hind paw volume [1, 8]: 0.44 mL | Hind paw volume ([1]; day 12 of study, individual animal, listed as BX12): 0.5 mL and 0.56 mL and 0.52 mL and 0.4 mL and 0.35 mL and 0.55 mL and 0.37 mL and 0.34 mL and 0.3 mL and 0.45 mL | Hind paw volume [1, 9]: 0.36 mL | Hind paw volume ([1]; day 13 of study, individual animal, listed as BX12): 0.32 mL (2×) and 0.54 mL and 0.36 mL and 0.29 mL (2×) and 0.43 mL and 0.37 mL and 0.39 mL and 0.33 mL | Hind paw volume [1, 10]: 0.31 mL | Hind paw volume ([1]; day 16 of study, individual animal, listed as BX12): 0.29 mL (2×) and 0.35 mL (2×) and 0.32 mL and 0.28 mL (3×) and 0.42 mL and 0.27 mL | Hind paw volume [1, 11]: 0.34 mL | Hind paw volume ([1]; day 19 of study, individual animal, listed as BX12): 0.3 mL (2×) and 0.4 mL and 0.42 mL and 0.31 mL and 0.25 mL and 0.45 mL and 0.29 mL (2×) and 0.36 mL | Hind paw volume [1, 12]: 0.35 mL | Hind paw volume ([1]; day 22 of study, individual animal, listed as BX12): 0.38 mL and 0.39 mL and 0.32 mL (2×) and 0.33 mL and 0.42 mL and 0.35 mL and 0.34 mL (2×) and 0.29 mL | % Disease Suppression ([1]; group mean, n 10): 97.33% | Total Disease Burden (AUC) ([1]; group mean, n 10): 0.05 | % Disease Suppression [1, 13]: 140.2% and 93.5% and 107.8% and 121.6% and 130.8% and 38.3% and 96.1% and 96.9% and 65.5% and 52.1% | Total Disease Burden (AUC) [1, 13]: −0.78 and 0.13 and −0.15 and −0.42 and −0.60 and 1.19 and 0.08 (2×) and 0.55 and 0.35 | Maximum Δ Mean Volume [1]: 0.12*** ml | Mean Disease Burden [1]: 0.05*** | % Disease Suppression (vs Vehicle) [1]: 97.3% | foot pad / hind limb swelling ([1]; result in words (Table 9, FIG. 9), listed as FH): lower mean change in foot pad swelling on the day of maximal swelling compared to vehicle; also recorded: performed well compared to Etanercept | Mean Body Weigh at Nadir ([2]; mouse, in vivo): −7.4% | body weights vs. vehicle controls ([2]; mouse, in vivo): comparable to vehicle controls | treatment-related deaths ([2]; result in words, FH 440 mg/kg i.p. qodx7): no treatment-related deaths | kidney graft morphology (HE staining) [3]: improved morphology with less tubular necrosis on POD5 | plasma Cr levels ([4]; POD7, CFH 8 mg/mouse i.p., controls 1.9±0.1): 1.4 ± 0.2 mg/dL | renal allograft function ([4]; result in words, creatinine on POD7 (FIG. 2)): improving renal allograft function | renal function, Cr level [5]: trend of improved renal function
